Key:
D4R = molecular target: T1, D4R (Homo sapiens, UniProt P21917, DEL265-296); experiment: D4R competition binding ([3H]-spiperone); details: for inhibition at 10 µM: 2 h, 10 µM compound, n=2, read-out: D4R % displacement at 10 µM; for Ki: mean±SEM of two experiments in duplicate, read-out: D4R binding affinity Ki
T1 sequence (P21917 with tags, fused parts or gaps DEL265-296): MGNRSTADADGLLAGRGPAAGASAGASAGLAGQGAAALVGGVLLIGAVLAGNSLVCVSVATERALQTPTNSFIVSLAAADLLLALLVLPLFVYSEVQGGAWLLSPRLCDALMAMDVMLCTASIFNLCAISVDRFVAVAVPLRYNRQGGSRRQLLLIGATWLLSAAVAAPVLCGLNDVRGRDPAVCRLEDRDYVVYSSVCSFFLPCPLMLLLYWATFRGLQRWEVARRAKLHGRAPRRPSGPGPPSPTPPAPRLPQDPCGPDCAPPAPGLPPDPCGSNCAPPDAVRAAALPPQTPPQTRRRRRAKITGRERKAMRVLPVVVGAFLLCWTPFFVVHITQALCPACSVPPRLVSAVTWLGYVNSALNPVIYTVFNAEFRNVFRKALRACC
Experimental: D4R competition binding experiments were carried out in polypropylene 96 -well plate s. Each well contained 35 µg of membranes from a CHO-D4R cell line (Perkin Elmer, RBHD42M400U A, protein concentration=14000 µg/ml), 1 nM [3H]-spiperone (68 Ci/mmol, 1 mCi/ml, Perkin Elmer NET1187001MC), and the compound studied. Non-specific binding was determined in the presence of 25 µM haloperidol (Sigma H1512). The reaction mixture (250 µl/well) was incubated at 27 °C for 120 min, after which 200 µL was transferred to GF/C 96-well plates (Millipore, Madrid, Spain) pretreated with 0.5% PEI and treated with binding buffer (50 mM Tris-HCl, 1 mM EDTA, 5 mM MgCl2, 5 mM KCl, 120 mM NaCl, pH=7.4). The samples were filtered and washed f our times with 250 µl wash buffer (50 mM Tris-HCl, 0.9% NaCl, pH=7.4) before measuring in a microplate beta scintillation counter (Microbeta Trilux, PerkinElmer, Madrid, Spain). Two independent experiments were carried out to calculate Ki values (n=2). […]

Human A2AAR = Human A2AAR (Homo sapiens, UniProt P29274); experiment: A2AAR competition binding ([3H]-ZM241385 displacement); design: expressed in transfected cells; host or cells: HeLa-A2AAR cell line (membranes); details: radioligand displacement, mean±SEM of three experiments in duplicate; read-out: A2AAR binding affinity Ki
Human A2AAR, sequence (P29274 whole entry): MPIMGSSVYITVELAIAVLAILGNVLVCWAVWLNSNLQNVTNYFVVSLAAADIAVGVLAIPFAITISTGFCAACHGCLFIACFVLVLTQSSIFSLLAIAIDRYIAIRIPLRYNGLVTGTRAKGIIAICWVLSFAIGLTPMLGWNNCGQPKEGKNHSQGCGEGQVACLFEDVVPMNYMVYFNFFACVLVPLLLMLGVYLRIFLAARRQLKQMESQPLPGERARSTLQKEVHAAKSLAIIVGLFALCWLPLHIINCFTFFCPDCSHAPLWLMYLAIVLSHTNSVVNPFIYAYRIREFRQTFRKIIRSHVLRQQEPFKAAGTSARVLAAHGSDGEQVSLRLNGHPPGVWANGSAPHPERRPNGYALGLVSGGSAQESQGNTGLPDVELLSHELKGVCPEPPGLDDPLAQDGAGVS
Experimental: Binding assays. Human A2AAR competition binding experiments were carried out in multiscreen GF/C 96-well plates (Millipore, Madrid, Spain) pretreated with binding buffer (50 mM Tris-HCl, 1 mM EDTA, 10 mM MgCl2, 2 U/ml adenosine deaminase, pH=7.4).
Each well contained 5 µg of membranes from a He l a-A2AAR cell line (protein concentration […]
compound studied. Non-specific binding was determined in the presence of 50 µM NE C A (Sigma E2387). The reaction mixture (200 µl/well) was incubated at 25 °C for 30 min, after which it was filtered and washed four times with 250 µl wash buffer (50 mM Tris -HCl, 1 mM EDTA, 10 mM MgCl 2, pH=7. 4) before measuring in a microplate beta scintillation counter (Microbeta Trilux, PerkinElmer, Madrid, Spain). Three independent experiments were carried out to calculate K i values (n=3). […]

SMILES | inhibition at 10 µM (D4R) | Ki (Human A2AAR) | Ki (D4R)
CCN(CCCCC(=O)Nc1nc2c(Br)cccc2s1)C1Cc2ccccc2C1 [Compound 22] | 19 ± 1% | 340 ± 50 nM | 
CCCN(CCCCC(=O)Nc1nc2c(OC)cccc2s1)C1Cc2ccccc2C1 [Compound 26] |  | 610 ± 90 nM | 700 ± 80 nM
CCCN(CCCCC(=O)Nc1nc2c(Br)cccc2s1)C1Cc2ccccc2C1 [Compound 27] | 27 ± 4% | 390 ± 50 nM | 
CCCN(CCCCC(=O)Nc1nc2c(OC)ccc(OC)c2s1)C1Cc2ccccc2C1 [Compound 30] | 19 ± 4% | 160 ± 30 nM | > 10000 nM

Source: article PMC8456950, “Structure‐Guided Design of G‐Protein‐Coupled Receptor Polypharmacology” (Angewandte Chemie (International Ed. in English), 2021)
